Laboratory results reported in patent US4510132A, “Compounds for use in antibacterial therapy” (priority 1982, dated 1985).

Columns and labels:
[1] = tested on: Salmonella typhimurium LT2 strain SL 696; test: MIC of antibiotics in the presence of polymyxin nonapeptide, microtiter plate, S. typhimurium; type: cell-based; settings: for minimum inhibitory concentration (MIC) of the antibiotic: S. typhimurium SL 696, 18 h; for factor by which PMBN sensitized the strain to the antibiotic: S. typhimurium strain SL 696, from Table 1; for MIC of fusidic acid: S. typhimurium
Description: (§1) Methods. Smooth Salmonella typhimurium LT2 strain SL 696 (Wilkinson et al 1972 J. Gen. Microbiol. 70,527) was used as indicator organism. It was grown in Luria broth (Miller 1972. Experience in molecular genetics, Cold Spring Harbor Laboratory, New York) at 37° C. in a rotary shaker (220 rpm) into early logarithmic growth phase (Klett 40 units, Klett-Summerson colorimeter, red filter) washed with 0.9% NaCl and resuspended in 0.9% NaCl (final optical density 120 Klett units corresponding to approx. 10^9 cells/ml).
(§2) Erythromycin ethylsuccinate stock solution was prepared by dissolving 5.5 mg of erythromycin […] with 2 ml of 96% ethanol whereafter deionized water was added to a final volume of 5.5 ml. Other antibiotics were readily dissolved in deionized water.
(§3) Experimental procedure: Davis minimal growth medium (Sanderson et al, 1972, Bact. Rev. 36,608) containing glucose (1 g/l), casaminoacids (1 g/l. Difco), tryptophan (20 mg/l), and increasing amounts of a particular antibiotic was inoculated with 10^4 cells per ml of a fresh suspension of indicator bacteria. Aliquots (200 μl) of this inoculated medium were pipetted in wells of a microtiter plate (Titertek, CAT NO. 76-213-05, Flow Laboratories, United States). Each well already contained increasing amounts of the particular polycationic agent in 30 μl of 0.9% NaCl. The plates were sealed with adhesive tape and incubated at 37° C. for 18 h.
(§4) Methods. The known compound, polymyxin E nonapeptide (colistin E nonapeptide, Japanese patent specification Nos. 4178/1971 and 51355/1972) having the following formula: [drawing 5] where leu is leucine, thr is threonine, and dab is diaminobutyric acid, was prepared from polymyxin E (colistin) using an enzymatic ficin treatment as described by Chihara et al (Agr. Biol. Chem. 37,2455, 1973).

[2] = tested on: E. coli strain IH 3080 (018:K1); test: MIC of antibiotics in the presence of polymyxin nonapeptide, microtiter plate, E. coli; type: cell-based; settings: for factor by which PMBN sensitized the strain to the antibiotic: E. coli 018:K1 strain IH 3080, from Table 2; for MIC of the antibiotic: E. coli IH 3080; for MIC of fusidic acid: E. coli
Description: as §1, §2, §3
Methods. The methods were those presented in Example 3 except that E. coli was used as the test organism. The E. coli strain was IH 3080 (018:K1) isolated from the cerebrospinal fluid of a neonate with meningitis.
as §4

Row | Compound | minimum inhibitory concentration (MIC) of the antibiotic ([1]; PMBN 0 μg/ml) | minimum inhibitory concentration (MIC) of the antibiotic ([1]; PMBN 0.3 μg/ml) | minimum inhibitory concentration (MIC) of the antibiotic ([1]; PMBN 1 μg/ml) | minimum inhibitory concentration (MIC) of the antibiotic ([1]; PMBN 3 μg/ml) | minimum inhibitory concentration (MIC) of the antibiotic ([1]; PMBN 10 μg/ml) | minimum inhibitory concentration (MIC) of the antibiotic ([1]; PMBN 30 μg/ml) | factor by which PMBN sensitized the strain to the antibiotic [1] [times] | factor by which PMBN sensitized the strain to the antibiotic [2] [times] | MIC of the antibiotic ([2]; PMBN 0 μg/ml) [µg/mL] | MIC of the antibiotic ([2]; PMBN 0.3 μg/ml) [µg/mL] | MIC of the antibiotic ([2]; PMBN 1 μg/ml) [µg/mL] | MIC of the antibiotic ([2]; PMBN 3 μg/ml) [µg/mL] | MIC of the antibiotic ([2]; PMBN 10 μg/ml) [µg/mL] | other results
1 | CO[C@@H]1[C@@H](OC(N)=O)[C@@H](O)[C@H](Oc2ccc3c(O)c(NC(=O)c4ccc(O)c(CC=C(C)C)c4)c(=O)oc3c2C)OC1(C)C [Novobiocin, novobiocin] | ≥ 100 | 10 | 3 | 3 | 1 | 1 | ≥ 100 | 10 | 30 | 10 | 10 | 3 | 3 | –
2 | CC1(C)S[C@@H]2[C@H](NC(=O)Cc3ccccc3)C(=O)N2[C@H]1C(=O)O [Benzylpenicillin, benzylpenicillin] | 10 | 10 | 10 | 3 | 3 | 1 | 10 | 3 | 10 | 10 | 10 | 3 | 3 | –
3 | CC(=O)O[C@H]1C[C@@]2(C)[C@@H](C[C@@H](O)[C@H]3[C@@]4(C)CC[C@@H](O)[C@@H](C)[C@@H]4CC[C@@]32C)/C1=C(\CCC=C(C)C)C(=O)O [Fusidic acid, fusidic acid] | 300 | 100 | 30 | 30 | 10 | ≥ 3 | ≥ 100 | 100 | 100 | 3 | 3 | 3 | 1 | MIC of fusidic acid ([1]; PMEN 0 μg/ml): 300; MIC of fusidic acid ([1]; PMEN 0.3 μg/ml): 100; MIC of fusidic acid ([1]; PMEN 1.0 μg/ml): 30; MIC of fusidic acid ([1]; PMEN 3.0 μg/ml): 10; MIC of fusidic acid ([1]; PMEN 10 μg/ml): 3; MIC of fusidic acid ([1]; PMEN 30 μg/ml): 1; MIC of fusidic acid ([2]; PMEN 0 μg/ml): 100; MIC of fusidic acid ([2]; PMEN 0.3 μg/ml): 10; MIC of fusidic acid ([2]; PMEN 1.0 μg/ml): 10; MIC of fusidic acid ([2]; PMEN 3.0 μg/ml): 3; MIC of fusidic acid ([2]; PMEN 10 μg/ml): 3; MIC of fusidic acid ([2]; PMEN 30 μg/ml): 1
4 | Cc1onc(-c2ccccc2Cl)c1C(=O)N[C@@H]1C(=O)N2[C@@H]1SC(C)(C)[C@@H]2C(=O)O [Cloxacillin, cloxacillin] | ≥ 1000 | 300 | 100 | 100 | 30 | 30 | ≥ 30 | 100 | > 300 | 100 | 100 | 30 | 30 | –
